{
  "source": "paper PMC11345829",
  "about": "“Discovery of Potent Isoquinolinequinone N-Oxides to Overcome Cancer Multidrug Resistance” (Journal of Medicinal Chemistry, 2024)",
  "type_in_all_cases": "cell-based, human",
  "key": {"[1]": {"system": "NCI60 tumor cell line panel", "assay": "NCI60 one-dose screen (10 μM), mean growth", "details": "48 h, one dose 10 μM, mean cell growth of 60 tumor cell lines; for activity at 10 µM: Homo sapiens", "protocol": "S2.1 NCI Screening Assay Experimental details\nNCI Screening Assay Experimental: Cancer cell growth assays (NCI60 screening) 5,6 One-dose study: Tested compounds were initially solubilised in DMSO, diluted into RPMI 1640 and 5% fetal bovine serum/L-glutamine, and added to 96-well plates containing cell lines previously cultured for 24 h. After 48 h incubation, the media were removed, and the cells were fixed and stained with sulforhodamine B to determine overall percent growth/ total protein content. Unbound dye was removed with five washes of 1% acetic acid, and the plates were allowed to air dry. The dye was then resolubilised in Tris buffer, and the colorimetric absorbance was measured (515 nm). Growth inhibition was measured relative to the response generated from proliferating cells cultured under identical conditions for 48 h. […]"}, "DLD1-TxR": {"system": "DLD1-TxR", "assay": "SRB cell growth inhibition assay", "details": "for selectivity ratio colorectal cancer: GI50 sensitive DLD1 / GI50 MDR DLD1-TxR; for GI50: Homo sapiens, 48 h, colorectal cancer MDR, mean ± SEM; for GI50 / GI50 concentration range against MDR DLD1-TxR: SRB assay; for GI50 concentration range against MDR DLD1-TxR: in words", "protocol": "Two distinct pairs of counterpart drug-sensitive and MDR human tumor cell lines were used, namely the non-small lung cancer (NSCLC) NCI-H460 (same cell line as in the NCI screen) and its MDR counterpart cell line NCI-H460/R and the colorectal cancer DLD1 and its MDR counterpart cell line DLD1-TxR (Table 3). The screening was performed using the SRB assay, and the GI50 for each compound was determined by interpolation on the attained concentration−response curves and compared with NCI60 screening data (SI, Figures S62−S63; Table S21).\nTwo pairs of drug-sensitive and multidrug-resistant (MDR) cell lines from human nonsmall cell lung cancer (NSCLC), NCI-H460 and NCI-H460/R, and colorectal cancer, DLD1 and DLD1-TxR, kindly provided by Dr M. Pešić (Belgrade, Serbia), were used to evaluate the growth inhibition potential of the compounds 1, 2, 3, 4, 5, 20, 23, 24, an 25.[76],[77] Additionally, growth inhibition assays were performed with compound 25 on two other NSCLC cell lines, A549 and NCI-H322, obtained from the American Type Culture Collection (ATCC) and the European Collection of Authenticated Cell Cultures, respectively. The A549 cell line was maintained in Dulbecco’s Modified Eagle Medium (DMEM) supplemented with 4.5 g/L Glucose with UltraGlutamine with sodium pyruvate (Lonza, Basel Stücki, Switzerland), enriched with 10% fetal bovine serum (FBS; Biowest, Nuaillé, France). The lung fibroblast MRC-5 cell line and the remaining NSCLC and colorectal cancer cell lines were cultured in Roswell Park Memorial Institute (RPMI) 1640 (with stable glutamine and 25 mM HEPES) medium (Biowest), supplemented with 10% fetal bovine serum. […] For the sulforhodamine B (SRB) and 3D cell culture assays, the media were supplemented with 5% FBS. The remaining experiments were performed with medium supplemented with 10% FBS.\nCells were seeded at a previously determined optimal cell concentration (5.0 × 10^4 cells/mL for NSCLC cells and the nontumorigenic MRC-5 cell line and 1.0 × 10^5 cells/mL for colorectal cancer cells) and incubated at 37 °C for 24 h. […] The SRB assay was performed as previously described.[78],[79] Briefly, after fixing cells with 10% (w/v) ice-cold trichloroacetic acid (Merck Life Science), the proteins were stained with 0.4% of SRB (Merck Life Science) in acetic acid (Merck Life Science). Following washing steps in acetic acid, the bound dye was solubilized with 10 mM Tris base solution (Merck Life Science). Absorbance was measured at 510 nm in a multiplate reader (Synergy Mx, Biotek Instruments Inc., Winooski, Vermont, USA) using the Gen5 software (Biotek Instruments Inc.)."}, "NCI-H460 cells": {"system": "NCI-H460 cells", "assay": "BrdU incorporation assay (cell proliferation)", "details": "48 h; 25 at 0.35 and 0.7 μM; doxorubicin 50 nM", "protocol": "To assess the impact of compound 25 on cell proliferation, the bromodeoxyuridine (BrdU) incorporation assay was performed.\nFigure 7 Effect of compound 25 on the % of proliferating NCI-H460 cells, determined with the BrdU assay. […] (A) Percentage of BrdU-incorporating cells under different treatments. Results are the mean ± SEM from at least 3 independent experiments. * p ≤ 0.05, ** p ≤ 0.01, when comparing DMSO vs compound treatment.\nAt 4 h before the end of this treatment, cells were incubated with 1 μM of BrdU (Merck Life Science). After collection of cells, they were fixed with paraformaldehyde 4% (Merck Life Science) for 40 min at room temperature (RT). Then, cells were subjected to a cytospin (500 rpm for 5 min), and cellular DNA was denaturated using 2 M of HCl (Merck Life Science) for 20 min. Cells were incubated with a PBS solution containing 0.5% Tween (Promega, Madison, Wisconsin, USA) and 0.05% bovine serum albumin (BSA; Merck Life Science). The cells were further incubated with a primary monoclonal mouse anti-BrdU Clone Bu20a antibody (1:10; Dako, Glostrup, Denmark) for 1 h, followed by incubation with a polyclonal rabbit antimouse immunoglobulins/FITC secondary antibody (1:100; Dako) for 30 min at RT. […] The cells were counted using the ImageJ 2.1.0 software."}},
  "data": [
    {"compound": "COC(=O)c1c2c(c[n+]([O-])c1C)C(=O)C=CC2=O", "note": "[Compound 23]", "values": [
      {"measurement": "activity at 10 µM", "setting": "[1]", "value": 44.5, "unit": "%"},
      {"measurement": "selectivity ratio colorectal cancer", "setting": "DLD1-TxR", "value": 2},
      {"measurement": "GI50", "setting": "DLD1-TxR", "value": "14900 ± 680", "unit": "nM"}
    ]},
    {"compound": "COC(=O)c1c2c(c(C)[n+]([O-])c1C)C(=O)C(NCc1ccc(F)cc1)=CC2=O", "note": "[Compound 4]", "values": [
      {"measurement": "activity at 10 µM", "setting": "[1]", "value": 18, "unit": "%"},
      {"measurement": "selectivity ratio colorectal cancer", "setting": "DLD1-TxR", "value": 1.9},
      {"measurement": "GI50", "setting": "DLD1-TxR", "value": "3130 ± 100", "unit": "nM"}
    ]},
    {"compound": "COC(=O)c1c2c(c(C)[n+]([O-])c1C)C(=O)C(NCc1ccc(O)cc1)=CC2=O", "note": "[Compound 20]", "values": [
      {"measurement": "activity at 10 µM", "setting": "[1]", "value": -21, "unit": "%"},
      {"measurement": "mean growth (%, 10 μM)", "setting": "[1]", "value": -21, "unit": "%"},
      {"measurement": "selectivity ratio colorectal cancer", "setting": "DLD1-TxR", "value": 1.6},
      {"measurement": "GI50", "setting": "DLD1-TxR", "value": "5930 ± 550", "unit": "nM"}
    ]},
    {"compound": "COC(=O)c1c2c(c[n+]([O-])c1C)C(=O)C=C(NCc1ccccc1)C2=O", "note": "[Compound 25]", "values": [
      {"measurement": "selectivity ratio colorectal cancer", "setting": "DLD1-TxR", "value": 1.5},
      {"measurement": "GI50", "setting": "DLD1-TxR", "value": "420 ± 30", "unit": "nM"},
      {"measurement": "GI50 concentration range against MDR DLD1-TxR", "setting": "DLD1-TxR", "value": "nanomolar range"},
      {"measurement": "percentage of proliferating (BrdU-incorporating) cells", "setting": "NCI-H460 cells", "value": "significantly reduced the percentage of NCI-H460 proliferating cells"}
    ]},
    {"compound": "COC(=O)c1c2c(c(C)[n+]([O-])c1C)C(=O)C=C(NCc1ccccc1)C2=O", "note": "[Compound 2]", "values": [
      {"measurement": "selectivity ratio colorectal cancer", "setting": "DLD1-TxR", "value": 2.7},
      {"measurement": "GI50", "setting": "DLD1-TxR", "value": "880 ± 90", "unit": "nM"},
      {"measurement": "GI50 concentration range against MDR DLD1-TxR", "setting": "DLD1-TxR", "value": "nanomolar range"}
    ]},
    {"compound": "COc1cccc2c1C(=O)c1c(O)c3c(c(O)c1C2=O)C[C@@](O)(C(=O)CO)C[C@@H]3O[C@H]1C[C@H](N)[C@H](O)[C@H](C)O1", "note": "[doxorubicin, reference compound]", "values": [
      {"measurement": "percentage of proliferating (BrdU-incorporating) cells", "setting": "NCI-H460 cells", "value": "significantly reduced the percentage of NCI-H460 proliferating cells"}
    ]},
    {"compound": "COC(=O)c1c2c(c(C)[n+]([O-])c1C)C(=O)C=C(NCc1ccc(F)cc1)C2=O", "note": "[Compound 5]", "values": [
      {"measurement": "activity at 10 µM", "setting": "[1]", "value": -37, "unit": "%"},
      {"measurement": "mean growth (%, 10 μM)", "setting": "[1]", "value": -37, "unit": "%"},
      {"measurement": "selectivity ratio colorectal cancer", "setting": "DLD1-TxR", "value": 1.8},
      {"measurement": "GI50", "setting": "DLD1-TxR", "value": "670 ± 50", "unit": "nM"},
      {"measurement": "GI50 concentration range against MDR DLD1-TxR", "setting": "DLD1-TxR", "value": "nanomolar range"}
    ]},
    {"compound": "COC(=O)c1c2c(c[n+]([O-])c1C)C(=O)C(NCc1ccccc1)=CC2=O", "note": "[Compound 24]", "values": [
      {"measurement": "activity at 10 µM", "setting": "[1]", "value": -35.1, "unit": "%"},
      {"measurement": "mean growth (%, 10 μM)", "setting": "[1]", "value": -35.1, "unit": "%"},
      {"measurement": "selectivity ratio colorectal cancer", "setting": "DLD1-TxR", "value": 1.9},
      {"measurement": "GI50", "setting": "DLD1-TxR", "value": "720 ± 30", "unit": "nM"},
      {"measurement": "GI50 concentration range against MDR DLD1-TxR", "setting": "DLD1-TxR", "value": "nanomolar range"}
    ]}
  ]
}
